# Tests used:
# [1] = tested on: HepG2 hepatoblastoma cell line; assay: Cytotoxicity assay (WST-1); type: cell-based, human; conditions: Hep-G2 cells, 24 hours exposure
# Excerpt: This assay investigates cytotoxicity which is defined as the cell-killing property of a chemical compound, independent from the mechanisms of cell death. The HepG2 hepatoblastoma cell line is one of the most common human cell lines for hepatotoxicity studies. […] This assay measures metabolic activity of living cells using the WST-1 cell proliferation reagent (Roche Diagnostics). The tetrazolium salt WST-1 is cleaved to water soluble formazan by cellular enzymes. An expansion in the number of viable cells results in an increase in the overall activity of mitochondrial dehydrogenases in the sample. This augmentation in enzyme activity leads to an increase in the amount of formazan dye formed, which directly correlates to the number of metabolically active cells in the culture. The formazan dye produced by metabolically active cells is directly quantified in a scanning multiwell spectrophotometer by measuring the absorbance of the formazan dye solution between 420 and 480 nm. Healthy HepG2 cells, when maintained in culture, continuously divide and multiply over time. A toxic chemical, regardless of site and mechanism of action, will interfere with this process and result in the reduction of the growth rate reflected in the cell number.
# Experimental Procedure: Hep-G2 cells are seeded into a 96-well microplate and maintained in culture for 24 hours. They are then exposed to the test compound over a range of eight concentrations. After 24 hours exposure, the cells are incubated in presence of reagent WST-1 for 30 min before measuring the absorbance of the formazan dye formed. Cytotoxicity is expressed as a concentration dependent reduction of the conversion formazan dye formation due to a decrease in cell proliferation as compared to untreated cells. The TC50 (Toxic Concentration 50%), is defined as the concentration of tested compound required to reduce the cellular viability by 50% relative to the control culture. The lower the TC50 value, the higher is the cytotoxic potential of the test compound. […]
# [2] = tested on: Immortalized lymphoblastoid cells (BC1 LCL); assay: ATP assay (ATP dependent luciferase reaction, low glucose); type: cell-based; conditions: 10 µM, 72 h
# Excerpt: Electrons donated from the citric acid cycle in form of NADH are transferred between complexes I, II and III of the respiratory chain. In this process mitochondrial membrane potential is generated through proton pumps in the mitochondrial inner membrane. This electrochemical gradient across the inner mitochondrial membrane is used in healthy cells to provide the energy to drive mitochondrial ATP production. Consequently, cellular ATP levels are a good indicator of mitochondrial function. […] A potential inhibition of mitochondrial respiration can be detected through special growth conditions in vitro. […]
# Experimental Procedure: This assay was therefore performed in the absence of glucose in the medium. […] The number of cells was counted and after brief washing in PBS and collecting through centrifugation (5 min; 200 x g) the cells were lysed in a volume of 0.5 ml lysis solution (4 mM EDTA, 0.2% Triton X-100) for 15 min.on ice and 10 µl of lysate was added into a white 96 well plate. […] The reaction was started by addition of 100 µl reaction mix (300 µM D-Luciferin, 5 µg/ml firefly luciferase, 75 µM DTT, 25 mM HEPES, 6.25 mM MgCl2, 625 µM EDTA and 1 mg/ml BSA) and the luminescence signal was quantified in a multimode plate reader (Tecan M1000 plate reader; luminescence integration time: 100 ms). […]
Structure (SMILES),TC50 [1] [µM],ATP levels [2] [%]
"COC1=C(OC)C(=O)C(CCCCCCCCCCO)=C(C)C1=O [Compound IA, Idebenone]",100,–
COC1=C(OC)C(=O)C(CCCCCCCCCC(C)(C)O)=C(C)C1=O [Compound IC],–,63
"CCCCCCCCCCCC1=C(O)C(=O)C=C(O)C1=O [Compound IE, Embelin]",100,95

# — patent EP2605769B1, “BENZOQUINONE DERIVATIVES FOR THE TREATMENT OF MITCHONDRIAL EYE DISEASES” (Santhera Pharmaceuticals (Schweiz) AG, priority 2010, dated 2012)
